Experimental data as given in patent US20160136120A1, “TRANSDERMAL DELIVERY KITS” (ASCLEMED USA, INC. dba EnovaChem Manufacturing, priority 2013, published 2016).

Assay: Stability tests of API mixed with Microderm base, stored in a jar with closed lid (LC-UV assay)
Type: physicochemical
Conditions: as illustrated in the stability studies
Description: The stability tests were carried out by mixing the API (USP strength) with Microderm™, and placing the resulting composition in ajar with a closed lid.
Column: 4.6-mm×25.0-cm; 5-μm packing L1
Storage condition: 20° C. to 25° C. (68° F. to 77° F.)

Susceptibility to degradation: particularly susceptible to degradation
SMILES: NCC(CC(=O)O)c1ccc(Cl)cc1 (stereo not drawn) [Baclofen, β-(4-chlorophenyl)-γ-aminobutyric acid]
